Source: patent publication US20070087977A1, “METHODS AND COMPOSITIONS FOR TREATING PAIN” (priority 2004, published 2007)
Where two headings read alike, the source gives them in different places.

Assays:
[1] = tested on: mdr1a (P-gP) knockout mouse; conditions: same doses, cited from earlier work
[2] = tested on: adult subjects with chronic pain; assay: Human study of the effects of oral quercetin (Q) and analgesics on sedation, concentration and pain; format: in vivo
Procedure: An empiric trial on the effects of oral quercetin (Q) on sedation, concentration, and pain was conducted. Inclusion criteria included ongoing pain of at least 4/10 on the Likert scale, poor tolerance of current analgesic regimen (complaints of sedation, dizziness, inability to focus), and willingness to complete daily diaries.
Approximately 16 adult subjects with chronic pain were screened and 9 subjects were admitted to the trial. Their pain disorders included peripheral neuropathy (2), facial pain (2), cervical radiculopathy (2), lumbar spine disease (3). Their pre-existing medications included short acting opioids (Vicodin TID, Tramadol 50 mg Q4-6), high dose, long acting opioids (OxyContin 240 mg, Methadone 400 mg), Gabapentin (900 mg and 2700 mg), Ativan, Flexeril, and Soma 350 mg. Seven of the subjects were using at least two analgesic medications. Two subjects were using no current medications because of prior histories of sedation and dizziness during opioid trials.
Q (Sigma) 500 mg per gel capsule was compounded and supplied to all subjects by overnight mail. Subjects were instructed to complete daily diaries for 7 days and continue their baseline medications and regular activities. On approximately the 7th day, they were asked to begin twice daily dosing of 2 Q (1000 mg) capsules (total daily dose of Q, 2000 mg). Diaries were completed for 7 days. Individual diaries included rating sleep interference, focus, pain now, and worst pain over the prior 24 hours. Subjects were instructed that concomitant pain medications should not be altered without speaking with the investigator. Subjects were advised that they would be contacted by telephone every day or every other day to assess progress in the trial and any side effects associated with the addition of Q. At the end of the trial, patients were interviewed. They were asked to rate their satisfaction with the study medication (−2-+2) and its ability to modulate the CNS effects of their pain medications.

[3] = tested on: Healthy subjects undergoing third molar removal; assay: Quercetin ameliorates CNS effects of oxycodone in an acute pain model (third molar removal); format: in vivo, human
Procedure: Opioids frequently produce adverse CNS side effects in ambulatory settings, providing a rationale for improving opioid analgesia by minimizing adverse effects. […] Healthy subjects (N=65) undergoing third molar removal are randomly allocated to receive 500 mg oral quercetin or matching placebo at 1 hr prior to surgery. […] Total Nausea and Vomiting Score (TNVS) is calculated for the time from dosing through 24 hr.

SMILES | sensitivity to fetal cleft palate ([1]; heterozygous (+/-) mice) | sensitivity to fetal cleft palate ([1]; homozygous (+/+) mice) | sleep rating (1 perfect sleep, 10 worst) ([2]; after taking Q, all patients, FIG. 5) | concentration rating (1 perfect concentration, 10 worst) ([2]; after taking Q, all patients, FIG. 6) | worst pain in the last 24 hrs (NPRS, 1 no pain, 10 worst) ([2]; after taking Q, all patients, FIG. 7) | pain at the time the patients were called (pain now) ([2]; after taking Q, all patients, FIG. 8) | global assessment (scale of -2 to 2) ([2]; all patients on opiate or MSD and modulator (Q), FIG. 15) | CNS activation noted ([2]; opioid users taking Q) | central withdrawal noted (number of opioid users) ([2]; opioid users taking Q) | number of patients reporting 2 in global assessment ([2]; scale of -2 to 2, FIG. 15) | number of patients reporting -2 in global assessment ([2]; scale of -2 to 2, FIG. 15) | pain on the scale from 1-10 (worst pain in last 24 hrs, pain at time of call) ([2]; two patients not on baseline meds, poor tolerance of systemic medications, FIGS. 13 and 14) | median time to request for a second analgesic ([3]; 500 mg oral quercetin + 10 mg oral oxycodone) [min] | mean pain intensity ([3]; 500 mg oral quercetin + 10 mg oral oxycodone, compared with placebo group) | oxycodone plasma concentrations, quercetin vs placebo group ([3]; prior to surgery, at 1 hr, at 4 hr)
CC[C@H](C)[C@H]1O[C@]2(C=C[C@@H]1C)C[C@@H]1C[C@@H](C/C=C(\C)[C@@H](O[C@H]3C[C@H](OC)[C@@H](O[C@H]4C[C@H](OC)[C@@H](O)[C@H](C)O4)[C@H](C)O3)[C@@H](C)/C=C/C=C3\CO[C@@H]4[C@H](O)C(C)=C[C@@H](C(=O)O1)[C@]34O)O2 [avermectin] | less sensitive | insensitive | – | – | – | – | – | – | – | – | – | – | – | – | –
O=c1c(O)c(-c2ccc(O)c(O)c2)oc2cc(O)cc(O)c12 [quercetin] | – | – | overall improvement | overall improvement | overall improvement | overall improvement | overall improvement in their condition | all the 4 opioid users | 3 | three | none | brought the pain down | 120 | consistently lower | do not differ
